Measurements from ChEMBL document CHEMBL1201862, “PubChem BioAssay data set” (2004).
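1) Cells in 96-well plates. 2) Compound, 48 h, 5 concentrations. 3) Linear interpolation between surrounding doses. 4) Unreached endpoint = highest concentration. GI50 marks 50% less growth.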 Active and inactive are the calls of the source. No stated cut-off is given here; in the data, active = GI50 up to about 1.1 µM and inactive = higher.

Legend:
Experiment in all cases: inhibition of tumour cell growth, NCI panel, 48 h
UO-31 = tested on: UO-31
MDA-MB-435 = tested on: MDA-MB-435
NCI-H522 = tested on: NCI-H522
LOX IMVI = tested on: LOX IMVI
NCI/ADR-RES = tested on: NCI/ADR-RES
MDA-MB-231 = tested on: MDA-MB-231
A498 = tested on: A498
NCI-H460 = tested on: NCI-H460
SK-MEL-2 = tested on: SK-MEL-2
SW-620 = tested on: SW-620
SR = tested on: SR
U-251 = tested on: U-251
HCT-15 = tested on: HCT-15
T47D = tested on: T47D
A549 = tested on: A549
CCRF-CEM = tested on: CCRF-CEM
K562 = tested on: K562
MDA-N = tested on: MDA-N
MOLT-4 = tested on: MOLT-4
HOP-92 = tested on: HOP-92
EKVX = tested on: EKVX
Hs-578T = tested on: Hs-578T
SK-MEL-5 = tested on: SK-MEL-5
HCC 2998 = tested on: HCC 2998
PC-3 = tested on: PC-3
IGROV-1 = tested on: IGROV-1
OVCAR-3 = tested on: OVCAR-3
TK-10 = tested on: TK-10
ACHN = tested on: ACHN
SNB-19 = tested on: SNB-19
M14 = tested on: M14
HOP-62 = tested on: HOP-62
Malme-3M = tested on: Malme-3M
NCI-H226 = tested on: NCI-H226
MCF7 = tested on: MCF7
NCI-H23 = tested on: NCI-H23
SF-539 = tested on: SF-539
HT-29 = tested on: HT-29
CAKI-1 = tested on: CAKI-1
UACC-62 = tested on: UACC-62
RPMI-8226 = tested on: RPMI-8226
DU-145 = tested on: DU-145
SNB-75 = tested on: SNB-75
SK-OV-3 = tested on: SK-OV-3
COLO 205 = tested on: COLO 205
OVCAR-8 = tested on: OVCAR-8
HL-60 = tested on: HL-60
RXF 393 = tested on: RXF 393
SF-295 = tested on: SF-295
SK-MEL-28 = tested on: SK-MEL-28
KM12 = tested on: KM12
786-0 = tested on: 786-0
SN12C = tested on: SN12C
OVCAR-4 = tested on: OVCAR-4
HCT-116 = tested on: HCT-116
SF-268 = tested on: SF-268
UACC-257 = tested on: UACC-257

For `NC(=S)N/N=C\CC(O)(C(F)(F)F)C(F)(F)F`, the GI50 (UO-31) was > 10 µM (inactive), the GI50 (MDA-MB-435) was > 10 µM (inactive) and the GI50 (NCI-H522) was > 10 µM (inactive). The GI50 (LOX IMVI) was > 10 µM (inactive), the GI50 (NCI/ADR-RES) was > 10 µM (inactive) and the GI50 (MDA-MB-231) was > 10 µM (inactive). The GI50 (A498) was > 10 µM (inactive), the GI50 (NCI-H460) was > 10 µM (inactive) and the GI50 (SK-MEL-2) was > 10 µM (inactive). For the same compound, the GI50 (SW-620) was > 10 µM (inactive), the GI50 (SR) was > 10 µM (inactive) and the GI50 (U-251) was > 10 µM (inactive). For the same compound, the GI50 (HCT-15) was greater than 10 µM, the GI50 (T47D) was > 10 µM (inactive) and the GI50 (A549) was > 10 µM (inactive). The GI50 (CCRF-CEM) was > 10 µM (inactive), the GI50 (K562) was > 10 µM (inactive) and the GI50 (MDA-N) was > 10 µM (inactive). For the same compound, the GI50 (MOLT-4) was > 10 µM (inactive), the GI50 (HOP-92) was > 10 µM (inactive) and the GI50 (EKVX) was > 10 µM (inactive). For the same compound, the GI50 (Hs-578T) was > 10 µM (inactive), the GI50 (SK-MEL-5) was > 10 µM (inactive) and the GI50 (HCC 2998) was > 10 µM (inactive). For the same compound, the GI50 (PC-3) was > 10 µM (inactive), the GI50 (IGROV-1) was > 10 µM (inactive) and the GI50 (OVCAR-3) was > 10 µM (inactive). For the same compound, the GI50 (TK-10) was > 10 µM (inactive), the GI50 (ACHN) was > 10 µM (inactive) and the GI50 (SNB-19) was > 10 µM (inactive). For the same compound, the GI50 (M14) was > 10 µM (inactive), the GI50 (HOP-62) was > 10 µM (inactive) and the GI50 (Malme-3M) was > 10 µM (inactive). The GI50 (NCI-H226) was > 10 µM (inactive), the GI50 (MCF7) was > 10 µM (inactive) and the GI50 (NCI-H23) was > 10 µM (inactive). For the same compound, the GI50 (SF-539) was > 10 µM (inactive), the GI50 (HT-29) was > 10 µM (inactive) and the GI50 (CAKI-1) was > 10 µM (inactive). The GI50 (UACC-62) was > 10 µM (inactive), the GI50 (RPMI-8226) was > 10 µM (inactive) and the GI50 (DU-145) was > 10 µM (inactive). The GI50 (SNB-75) was > 10 µM (inactive), the GI50 (SK-OV-3) was > 10 µM (inactive) and the GI50 (COLO 205) was > 10 µM (inactive). For the same compound, the GI50 (OVCAR-8) was > 10 µM (inactive), the GI50 (HL-60) was > 10 µM (inactive) and the GI50 (RXF 393) was > 10 µM (inactive). The GI50 (SF-295) was > 10 µM (inactive), the GI50 (SK-MEL-28) was > 10 µM (inactive) and the GI50 (KM12) was > 10 µM (inactive). The GI50 (786-0) was > 10 µM (inactive), the GI50 (SN12C) was > 10 µM (inactive) and the GI50 (OVCAR-4) was > 10 µM (inactive). The GI50 (HCT-116) was > 10 µM (inactive), the GI50 (SF-268) was > 10 µM (inactive) and the GI50 (UACC-257) was > 10 µM (inactive).
